In patent US20190110476A1, “NOVEL ISOTHIAZOLAMIDES, PROCESSES FOR THEIR PREPARATION AND THEIR USE AS FUNGICIDES” (priority 2014, published 2019) one finds LogP data, which are given here for 91 compounds.

Marks after values point to notes of the source that are not given here.

The data set can be described thus: Measurement of LogP values by HPLC on reversed phase columns (EEC directive 79/831 Annex V.A8). The class given is physicochemical. The essentials:
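LogP measured by reversed-phase HPLC following EEC directive 79/831 Annex V.A8. Lambda-max taken from UV spectra at 200–400 nm at chromatographic peak maxima; diastereoisomer values listed separately.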
On to `Cc1cc(C)c(CNC(=O)c2snc(N)c2Cl)cc1C` [I-328], for which the LogP was 2.78[a]. Take `Cc1ccc(C(C)(C)C)c(CNC(=O)c2snc(N)c2Cl)c1` [I-329]: the LogP was 3.46[a]. With `Nc1nsc(C(=O)NCC2CCCCC2)c1-c1ccc(F)cc1` [I-332], the LogP was 2.96[a]. Consider `C[C@H](NC(=O)c1snc(N)c1-c1ccc(F)cc1)C1CCCCC1` [I-333], for which the LogP was 3.29[a]. In the case of `Nc1nsc(C(=O)NC2CCCCC2)c1-c1ccc(F)cc1` [I-334], the LogP was 2.66[a]. The figure for `Nc1nsc(C(=O)NCc2ccccc2F)c1-c1ccc(F)cc1` [I-335] is 2.43[a]. As to `Nc1nsc(C(=O)NCc2ccc(Cl)cc2)c1-c1ccc(F)cc1` [I-336], the LogP is 2.73[a]. For `Nc1nsc(C(=O)NCC2CC2)c1Cl` [I-337] the value was 1.30[a]; for `Cc1cc(CNC(=O)c2snc(N)c2Cl)ccc1F` [I-349], 2.28[a]. For the compound `COc1ccc(CNc2nsc(C(=O)NCc3ccc(F)c(C)c3)c2Cl)cc1` [I-350], the LogP was 3.89[a]. Take `Nc1nsc(C(=O)NCc2ccc(Cl)cc2)c1C1CC1` [I-358]: the LogP is 2.21[a].

As for `Nc1nsc(C(=O)NCC2CCCCC2)c1C1CC1` [I-359], the LogP was 2.37[a]. The figure for `Nc1nsc(C(=O)NC2CCCCC2)c1C1CC1` [I-360] is 2.00[a]; for `Nc1nsc(C(=O)NCc2ccccc2F)c1C1CC1` [I-361] it is 1.88[a]. Consider `Nc1nsc(C(=O)N(Cc2cc(F)ccc2F)C2CC2)c1Cl` [I-362], for which the LogP is 2.57[a]. For the compound `Cc1ccc(F)c(CN(C(=O)c2snc(N)c2Cl)C2CC2)c1` [I-363], the LogP is 2.80[a]. For the compound `Nc1nsc(C(=O)N(Cc2cc(Cl)ccc2F)C2CC2)c1Cl` [I-364], the LogP was 2.86[a]. With `Nc1nsc(C(=O)N(Cc2cc(Cl)ccc2Br)C2CC2)c1Cl` [I-365], the LogP was 3.29[a]. As to `COc1ccc(CNc2nsc(C(=O)NCc3ccc(Br)cc3)c2Cl)cc1` [I-366], the LogP is 4.01[a]. For `Nc1nsc(C(=O)NCc2ccc(Br)cc2)c1Cl` [I-372], the LogP is 2.39[a]. `COc1ccc(CNc2nsc(C(=O)NCc3ccc(Cl)cc3C)c2Cl)cc1` [I-376]: the LogP was 4.20[a]. For `Cc1cc(Cl)ccc1CNC(=O)c1snc(N)c1Cl` [I-389] the value was 2.60[a]; for `COc1ccc(CNc2nsc(C(=O)NCc3ccc(Cl)c(OC)c3)c2Cl)cc1` [I-390], 3.76[a]; for `COc1ccc(CNc2nsc(C(=O)NCc3cc(C)ccc3C3(C)CC3)c2Cl)cc1` [I-391], 4.92[a]. `COc1ccc(CNc2nsc(C(=O)NCc3cc(C)ccc3C(C)C)c2Cl)cc1` [I-392]: the LogP was 4.80[a]. With `COc1ccc(CNc2nsc(C(=O)NCc3cc(Cl)ccc3Cl)c2Cl)cc1` [I-393], the LogP was 4.34[a].

For `O=C(NCC1CCCCC1)c1snc(N(Cc2ccccc2)Cc2ccccc2)c1C(F)F` [I-394], the LogP is 5.88[a]. `O=C(NCc1ccc(F)cc1F)c1cc(NC(=O)C(F)(F)F)ns1` [I-398]: the LogP was 2.58[a].

Regarding `Cc1ccc(C2(C)CC2)c(CNC(=O)c2snc(N)c2Cl)c1` [I-414], the LogP is 3.29[a].

For `Cc1ccc(C(C)C)c(CNC(=O)c2snc(N)c2Cl)c1` [I-415], the LogP was 3.15[a]. With `Nc1nsc(C(=O)NCc2cc(Cl)ccc2Cl)c1Cl` [I-416], the LogP was 2.71[a]. For `Nc1nsc(C(=O)NCC2CCCCC2)c1C(F)F` [I-417] the value was 2.66[a]. Consider `C[C@H](NC(=S)c1snc(N)c1Cl)C1CCCCC1` [I-418], for which the LogP was 3.85[a]. With `COc1ccc(CNc2nsc(C(=O)NCc3ccc(F)c(OC)c3F)c2Cl)cc1` [I-426], the LogP is 3.69[a].

On to `C[C@H](NC(=O)c1snc(NCC(F)(F)F)c1Cl)C1CCCCC1` [I-427], for which the LogP was 4.11[a].

With `C[C@H](NC(=S)c1snc(NC2CC2)c1Cl)C1CCCCC1` [I-428], the LogP was 4.84[a]. As to `C[C@H](NC(=S)c1snc(NCC(F)(F)F)c1Cl)C1CCCCC1` [I-429], the LogP was 5.14[a]. `O=CNc1cc(C(=O)NCc2ccc(F)cc2F)sn1` [I-430]: the LogP is 1.79[a].

As for `CCCCC(=O)Nc1nsc(C(=O)NCC2CCCCC2)c1Cl` [I-450], the LogP was 3.20[c]. With `COc1c(F)ccc(CNC(=O)c2snc(N)c2Cl)c1F` [I-464], the LogP is 2.12[a].

As for `COc1cccc(CNC(=O)c2snc(N)c2Cl)c1Cl` [I-465], the LogP is 2.23[a]. For `O=CNc1nsc(C(=O)NCc2ccc(F)cc2F)c1Cl` [I-467], the LogP was 1.89[a].

Consider `C[C@H](NC(=O)c1snc(NC(=O)C(F)F)c1Cl)C1CCCCC1` [I-522], for which the LogP is 3.06[a]. For the compound `Nc1nsc(C(=O)NCC2CCCCC2)c1Br` [I-539], the LogP was 2.51[a]. With `O=C(NCC1CCCCC1)c1cc(N(Cc2ccccc2)Cc2ccccc2)ns1` [I-540], the LogP is 5.22[a]. For `O=C(NCC1CCCCC1)c1snc(N(Cc2ccccc2)Cc2ccccc2)c1Br` [I-541] the value was 6.25[a]; for `CON(Cc1ccc(F)cc1F)C(=O)c1snc(N)c1Cl` [I-542], 2.50[a]. Take `CON(CC1CCCCC1)C(=O)c1snc(N)c1Cl` [I-543]: the LogP was 3.04[a].

In the case of `O=C(Nc1nsc(C(=O)NCc2ccc(Cl)cc2)c1Cl)c1ccccc1` [I-569], the LogP is 2.97[a]. The figure for `CC(=O)Nc1nsc(C(=O)NCc2ccc(Cl)cc2)c1Cl` [I-570] is 2.03[a]. For the compound `CC(=O)N(C(C)=O)c1nsc(C(=O)NCc2ccc(Cl)cc2)c1Cl` [I-571], the LogP is 2.99[a]. Take `COc1ccc(CNc2nsc(C(=O)NC3CC4CCC3(C)C4(C)C)c2Cl)cc1` (stereo not shown) [I-572]: the LogP is 5.02[a];. The figure for `O=C(NCc1ccc(Cl)cc1)c1snc(NC(=O)C(F)F)c1Cl` [I-574] is 2.51[a]; for `O=C(NCc1ccc(Cl)cc1)c1snc(NCC(F)(F)F)c1Cl` [I-578] it is 3.44[a]; for `COC(=O)Nc1nsc(C(=O)NCc2ccc(Cl)cc2)c1Cl` [I-579] it is 2.29[a]. `O=C(NCc1ccc(Cl)cc1)c1snc(NC2CC2)c1Cl` [I-580]: the LogP was 3.07[a]. As for `C#CCNc1nsc(C(=O)NCc2ccc(Cl)cc2)c1Cl` [I-581], the LogP was 2.97[a]. Consider `O=C(NCc1ccc(Cl)cc1)c1snc(N(C(=O)c2ccccc2)C(=O)c2ccccc2)c1Cl` [I-582], for which the LogP is 4.39[a].

Take `Cc1c(N)nsc1C(=O)NCc1c(F)cc(F)cc1F` [I-583]: the LogP is 1.69[a]. On to `Cc1c(N)nsc1C(=O)NCc1cc(F)c(F)c(F)c1` [I-584], for which the LogP is 1.92[a].

On to `Cc1c(N)nsc1C(=O)NCc1cc(F)cc(F)c1F` [I-585], for which the LogP was 1.82[a].

As to `Cc1c(N)nsc1C(=O)NCc1c(F)cccc1Cl` [I-587], the LogP was 1.61[a].

Turning to `Cc1c(N)nsc1C(=O)NCc1cc(F)c(F)cc1F` [I-588], the LogP is 1.64[a]. For `Cc1c(N)nsc1C(=O)NCc1c(F)ccc(F)c1F` [I-596] the value was 1.49[a]; for `Cc1c(N)nsc1C(=O)NCc1ccc(F)c(F)c1F` [I-597], 1.68[a]; for `COc1ccc(CNc2nsc(C(=O)NCc3ccc(C4CC4)cc3)c2C2CC2)cc1` [I-600], 3.94[a].

In the case of `CCC(=O)Nc1nsc(C(=O)NC(C)C2CCCCC2)c1Cl` (stereo not shown) [I-601], the LogP is 2.82[a]. As to `Nc1nsc(C(=O)NCc2ccc(C3CC3)cc2)c1C1CC1` [I-606], the LogP is 2.48[a]. The figure for `CN1C2CCC1CC(NC(=O)c1snc(N)c1Cl)C2` (stereo not shown) [I-607] is −0.20[c]; for `C#Cc1c(NC(=O)C(F)(F)F)nsc1C(=O)NCC1CCCCC1` [I-609] it is 3.05[a]; for `Nc1nsc(C(=O)NCC2(F)CCCCC2)c1Cl` [I-615] it is 2.17[a].

Take `Nc1nsc(C(=O)NCC2CCCCC2)c1C#CCO` [I-618]: the LogP was 1.90[c]. With `Nc1nsc(C(=O)NC2CCCC3CCCCC32)c1Cl` (stereo not shown) [I-621], the LogP is 3.39[a]. In the case of `Nc1nsc(C(=O)NC2CCCC3CCCCC32)c1Cl` (stereo not shown) [I-622], the LogP was 3.48[a]. On to `O=C(NC1CCCC2CCCCC21)c1snc(NCC(F)(F)F)c1NCC(F)(F)F` (stereo not shown) [I-631], for which the LogP is 4.82[a]. With `Nc1nsc(C(=O)NCC2CCC(O)C2)c1Cl` (stereo not shown) [I-658], the LogP was 0.72[a]. As to `COc1ccc(CNc2nsc(C(=O)NCc3ccc(C)o3)c2Cl)cc1` [I-674], the LogP was 3.27[a]. On to `COc1ccc(CNc2nsc(C(=O)NCC3CCC(C)CC3)c2Cl)cc1` (stereo not shown) [I-675], for which the LogP was 4.56[a]. In the case of `O=C(NCC1CCCCC1)c1snc(NCCCO)c1Cl` [I-676], the LogP was 2.46[a]. Consider `Nc1nsc(C(=O)NCc2cc(F)c(F)cc2F)c1Cl` [I-677], for which the LogP is 2.03[a]. As for `O=CCCNc1nsc(C(=O)NCC2CCCCC2)c1Cl` [I-715], the LogP was 2.83[a]. For the compound `Nc1nsc(C(=O)NCc2cccc(I)c2)c1Cl` [I-716], the LogP was 2.51[a]. For `O=C(O)CCNc1nsc(C(=O)NCC2CCCCC2)c1Cl` [I-721] the value was 2.42[a]; for `CCOc1c(N)nsc1C(=O)NCc1c(F)cc(F)cc1F` [I-724], 2.09[a]. As for `CCOc1c(N)nsc1C(=O)NCC1CCCC1` [I-725], the LogP was 2.18[a]. `CCOc1c(N)nsc1C(=O)NCC1(O)CCCCC1` [I-726]: the LogP was 1.55[a]. `CCOc1c(N)nsc1C(=O)NC1CCCCC1` [I-727]: the LogP is 2.14[a].

For `CCOc1c(N)nsc1C(=O)NCC1CCCCCC1` [I-728], the LogP was 2.83[a].

Regarding `CCOc1c(N)nsc1C(=O)NCC1CCCCO1` (stereo not shown) [I-729], the LogP was 1.66[a]. For `CCOc1c(N)nsc1C(=O)NCc1ccccc1F` [I-730] the value was 1.93[a]; for `CCOc1c(N)nsc1C(=O)NCc1ccc(Cl)cc1` [I-731], 2.26[a].
